One experiment has as its system fibronectin. Put plainly: Initial (single point) binding screen of Tp0751 peptide library to immobilized fibronectin. Also noted: species or system human. The note with it: absorbance 600 nm, three wells, two independent experiments, Student's two-tailed t-test against non-binding peptides. The protocol: (§1) Fig 3 Tp0751 lipocalin derived peptides directly bind host proteins. (A) Thirteen overlapping Tp0751 synthetic 24-mer peptides were evaluated for binding to immobilized fibrinogen, fibronectin, collagen type I, and collagen type IV. Average absorbance readings (600 nm) from three wells are presented with bars indicating standard error and the results are representative of two independent experiments. […] Average absorbance readings (600 nm) from three wells are presented with bars indicating standard error and the results are representative of two independent experiments. […] The strand colored in cyan reflects the overlap of p10 and p11. Color coded sequences of peptides p4, p6, p10, p10scr1, and p10scr2 are shown. Arginine residues in the p10 peptides are indicated by underlining.
(§2) Plasminogen-depleted human fibrinogen (Calbiochem) was purchased from VWR International. Laminin isolated from Engelbreth-Holm-Swarm murine sarcoma basement membrane and fibronectin isolated from human plasma were purchased from Sigma-Aldrich Canada Ltd. (Oakville, ON). Human collagen types I and IV (Rockland Immunochemicals, Inc.) were purchased from VWR International.
(§3) To test for binding of synthetic Tp0751 peptides p1-p13, p1scr, p6scr, p10scr1, and p10scr2 to the host proteins fibrinogen, fibronectin, laminin, collagen type I, and collagen type IV, initial binding assays were performed as described previously. For dose-dependent binding assays, recombinant proteins were serially diluted 1:2 from either 10 μM to 0.156 μm (Tp0751_78A used for crystallization and Tp0751_78 WT) or 40 μm to 0.625 μm (peptides p4, p6, p10, p11, p10scr1, and p10scr2). Average absorbance readings (600 nm) from three wells are presented with bars indicating standard error and the results are representative of two independent experiments. Plates were read at 600 nm with a BioTek enzyme-linked immunosorbent assay plate reader (Fisher Scientific, Ottawa, ON). All statistical analyses were performed using the Student’s two-tailed t-test. Non-linear regression curves were fitted and apparent dissociation constants (K d) were calculated using GraphPad Prism data analysis software (San Diego, CA).

The next experiment deals with collagen type I. Put plainly: Initial (single point) binding screen of Tp0751 peptide library to immobilized collagen type I. The note with it: immobilized human collagen type I; absorbance 600 nm, three wells, two independent experiments; Student's two-tailed t-test against non-binding peptides. The protocol:
as §1, §2, §3

In the next experiment the test system is HUVEC monolayers. Put plainly: Peptide competitive inhibition assay: stationary adhesion of Tp0751-expressing B. burgdorferi (Bb-Tp0751) to HUVEC monolayers. The experiment is classed as cell-based, human. The note with it: for Effect on adhesion of Bb-Tp0751 to HUVEC monolayers: HUVECs on matrigel pre-incubated with 0.1 μg peptide per well for 3 h at 37°C, peptide removed, bacteria 12 h at 36°C, GFP bacteria counted in ten FOV, 400x, compared with scrambled peptide. The protocol:
Fig 5 Tp0751 peptide 10 inhibits adhesion of Tp0751-expressing B. burgdorferi to HUVEC monolayers. (A) Schematic showing the experimental design of the competitive inhibition assay. Confluent HUVEC monolayers seeded on artificial basement membrane were preincubated with synthetic Tp0751 peptides (p4, p6, p10, p11, p4scr, p6scr, and p10scr1) to allow for peptide-endothelial cell interactions. HUVECs were then co-incubated with parent (negative control) or Tp0751-expressing B. burgdorferi strains to assess the competitive inhibition capacity of the synthetic Tp0751 peptides. After washing to remove non-adherent bacteria, B. burgdorferi adhesion to HUVECs was quantified using fluorescence microscopy to count the number of adherent bacteria per field of view (FOV) at 400x magnification. (B) Bar graph illustrating the number of adherent B. burgdorferi per FOV. Mean counts ± SEM from ten FOV for each biological replicate are presented with standard error bars. For statistical analyses, attachment by strain Bb-Tp0751 to HUVEC monolayers preincubated with peptides p4, p6, and p10 was compared to the attachment of strain Bb-Tp0751 in the presence of corresponding scrambled peptides, using the Student’s two-tailed t-test. […] The parent and Bb-Tp0751 strains are indicated by clear white bars and striped colored bars, respectively. […] Mean counts ± SEM from ten FOV for each biological replicate are presented with standard error bars. Statistical analysis, was performed using the Student’s two-tailed t-test.
Human umbilical vein endothelial cells (HUVECs) pooled from multiple donors and purchased from Lonza (Allendale, NJ) were cultured in endothelial growth medium-2 (EGM-2) (Lonza) at 37°C in an atmosphere of 5% CO2, as per manufacturer’s instructions. B. burgdorferi strains were cultivated at 36°C in an atmosphere of 1.5% CO2 in BSK-II medium prepared in-house with appropriate antibiotics (100 μg/mL gentamycin, 200 μg/mL kanamycin).
Stationary adhesion assays were adapted from Szczepanski and colleagues and Cameron and colleagues. HUVECs (passage 2–3) were seeded in 4-well chamber slides (Nalge Nunc International, Rochester, NY), coated with 500 μg/mL phenol red-free matrigel (Corning, Tewksbury, MA) and grown 20 h at 37°C in 5% CO2 to form confluent monolayers. Synthetic Tp0751 peptides (p4, p6, p10, p11, […], p4scr, p6scr, and p10scr1) were diluted to 500 μg/ml in HEPES buffered saline solution (Lonza) and HUVECs were pre-incubated with 0.1 μg of Tp0751 peptide per well for 3 h at 37°C in 5% CO2. Peptide solutions were removed from HUVECs prior to the addition of bacteria. Borrelia burgdorferi strains were cultured in biological triplicate, and two days prior to the experiment, B. burgdorferi cultures were passaged to 6x10^5 cells/ml and grown for 48 h to reach a concentration of 2x10^7 cells/ml. Borrelia burgdorferi cultures were then centrifuged and resuspended in a 3:1 mixture of BSK-II:EGM-2 and 1.4x10^7 cells of each biological replicate were added to HUVECs in duplicate wells. […] Quantitation of B. burgdorferi adhesion to HUVECs was performed by counting GFP-expressing bacteria in ten fields of view (FOV) from duplicate wells for each biological replicate under 400X magnification on a Nikon 80i fluorescence microscope (Meridian Instrument Company, Inc., Kent, WA) fitted with a monochrome digital camera, a dark-field condenser, and fluorescein filter (Excelitas Technologies, Mississauga, ON). […]

Ends that are not written are not given here.

HHHHHHGGAAQTHTQPPVQTAMRIALWNRA [p4]: the “Binding to fibronectin in initial binding screen” value (“Binding to fibronectin” for short) with fibronectin is listed as “statistically significant binding”. In the experiment with collagen type I, the “Binding to collagen I in initial binding screen” value (“Binding to collagen I” below) is given as “statistically significant binding”. Further, the “Effect on adhesion of Bb-Tp0751 to HUVEC monolayers” value (from here on “Effect on adhesion of Bb-Tp0751”) in the experiment with HUVEC monolayers is given as “did not alter adhesion”.

Consider HHHHHHQGALQHLLAGLWIQTEISPNSGDI [p6], for which the “Binding to fibronectin” value in the experiment with fibronectin was “statistically significant binding”. The “Binding to collagen I” value with collagen type I is recorded as “statistically significant binding”. In the experiment on HUVEC monolayers, the “Effect on adhesion of Bb-Tp0751” value is listed as “did not alter adhesion”.

Turning to HHHHHHRKTVSFLTRNTAISSIRRRLEVTF [p10], the “Binding to fibronectin” value with fibronectin is “significant binding”. In addition, in the experiment on collagen type I, the “Binding to collagen I” value was “not to collagen I”. The “Effect on adhesion of Bb-Tp0751” value in the experiment on HUVEC monolayers was “significantly reduced binding”. Further, the “Peptide concentration giving statistically significant lower binding of Bb-Tp0751 to HUVEC monolayers compared with p8” value with HUVEC monolayers (preincubation with 0-545 nM peptide, Student's two-tailed t-test, p≤0.005) is at least 5.45 nM.

Consider HHHHHHSIRRRLEVTFESHEVIHVRAVEDV [p11], for which the “Binding to fibronectin” value in the experiment with fibronectin is listed as “statistically significant binding”. Further, the “Binding to collagen I” value with collagen type I is listed as “statistically significant binding”. In addition, in the experiment on HUVEC monolayers, the “Effect on adhesion of Bb-Tp0751” value is “did not alter adhesion”.

(Values after PMC5040251, “The Structure of Treponema pallidum Tp0751 (Pallilysin) Reveals a Non-canonical Lipocalin Fold That Mediates Adhesion to Extracellular Matrix Components and Interactions with Host Cells” (PLoS Pathogens, 2016).)
